Assay results reported in ChEMBL document CHEMBL4393697, “Lipophilic efficient phenylthiazoles with potent undecaprenyl pyrophosphatase inhibitory activity” (Eur J Med Chem, 2019).
Converted amounts (≈) assume the structure as drawn. The source made the active and inactive calls. The rule behind the calls is not given here.

Experiments:
[1] = test system: J774; test: Cytotoxicity against mouse J774 assessed as reduction in cell viability at 16 ug/ml incubated for 24 hrs by MTS assay; assay type: cell-based; conditions: j774, 24 h
[2] = test system: Staphylococcus aureus; test: Antibacterial activity against intracellular methicillin resistant Staphylococcus aureus USA400 infected in mouse J774 cells assessed as log10 reduction of viable bacterial cells incubated for 24 hrs followed by re-plating on tryptic soy agar plates at 37 degC for 18 to 22 hrs by broth microdilution assay; assay type: functional
[3] = test system: Staphylococcus aureus; test: Antibacterial activity against methicillin resistant Staphylococcus aureus USA400 assessed as reduction in bacterial cell growth incubated for 18 to 20 hrs by broth microdilution method; assay type: functional
[4] = test system: Streptococcus pneumoniae; test: Antibacterial activity against Methicillin resistant Streptococcus pneumoniae ATCC 700677 assessed as reduction in bacterial cell growth incubated for 18 to 20 hrs by broth microdilution method; assay type: functional
[5] = test system: Staphylococcus aureus; test: Antibacterial activity against vancomycin resistant Staphylococcus aureus VRS12 assessed as reduction in bacterial cell growth incubated for 18 to 20 hrs by broth microdilution method; assay type: functional
[6] = test system: Staphylococcus aureus; test: Antibacterial activity against Staphylococcus aureus ATCC 6538 assessed as reduction in bacterial cell growth incubated for 18 to 20 hrs by broth microdilution method; assay type: functional
[7] = test system: Staphylococcus aureus; test: Antibacterial activity against methicillin-resistant Staphylococcus aureus USA300 assessed as reduction in bacterial cell growth incubated for 18 to 20 hrs by broth microdilution method; assay type: functional
[8] = test system: Escherichia coli; test: Bactericidal activity against Escherichia coli JW55031 harboring deltatolC mutant assessed as reduction in bacterial cell growth incubated for 18 to 20 hrs followed by re-plating on tryptic soy agar plates at 37 degC for 18 hrs by broth microdilution assay; assay type: functional
[9] = test system: Enterococcus faecalis; test: Antibacterial activity against vancomycin resistant Enterococcus faecalis ATCC 51299 assessed as reduction in bacterial cell growth incubated for 18 to 20 hrs by broth microdilution method; assay type: functional
[10] = test system: Acinetobacter baumannii; test: Bactericidal activity against Acinetobacter baumannii ATCC 19606 assessed as reduction in bacterial cell growth incubated for 18 to 20 hrs followed by re-plating on tryptic soy agar plates at 37 degC for 18 hrs by broth microdilution assay; assay type: functional
[11] = test system: Staphylococcus epidermidis; test: Antibacterial activity against methicillin resistant Staphylococcus epidermidis NRS101 assessed as reduction in bacterial cell growth incubated for 18 to 20 hrs by broth microdilution method; assay type: functional
[12] = test system: Klebsiella pneumoniae; test: Bactericidal activity against Klebsiella pneumoniae BAA-1706 assessed as reduction in bacterial cell growth incubated for 18 to 20 hrs followed by re-plating on tryptic soy agar plates at 37 degC for 18 hrs by broth microdilution assay; assay type: functional
[13] = test system: Staphylococcus aureus; test: Bactericidal activity against vancomycin resistant Staphylococcus aureus VRS11a assessed as reduction in bacterial cell growth incubated for 18 to 20 hrs followed by re-plating on tryptic soy agar plates at 37 degC for 18 hrs by broth microdilution assay; assay type: functional
[14] = test system: Staphylococcus aureus; test: Antibacterial activity against Staphylococcus aureus NRS107 assessed as reduction in bacterial cell growth incubated for 18 to 20 hrs by broth microdilution method; assay type: functional
[15] = test system: Pseudomonas aeruginosa; test: Antibacterial activity against Pseudomonas aeruginosa ATCC 15442 assessed as reduction in bacterial cell growth incubated for 18 to 20 hrs by broth microdilution method; assay type: functional
[16] = test system: Escherichia coli; test: BActericidal activity against Escherichia coli BW25113 assessed as reduction in bacterial cell growth incubated for 18 to 20 hrs followed by re-plating on tryptic soy agar plates at 37 degC for 18 hrs by broth microdilution assay; assay type: functional
[17] = test system: Staphylococcus aureus; test: Bactericidal activity against Staphylococcus aureus NRS107 assessed as reduction in bacterial cell growth incubated for 18 to 20 hrs followed by re-plating on tryptic soy agar plates at 37 degC for 18 hrs by broth microdilution assay; assay type: functional
[18] = test system: Pseudomonas aeruginosa; test: Bactericidal activity against Pseudomonas aeruginosa ATCC 15442 assessed as reduction in bacterial cell growth incubated for 18 to 20 hrs followed by re-plating on tryptic soy agar plates at 37 degC for 18 hrs by broth microdilution assay; assay type: functional
[19] = test system: Staphylococcus aureus; test: Antibacterial activity against methicillin resistant Staphylococcus aureus NRS119 assessed as reduction in bacterial cell growth incubated for 18 to 20 hrs by broth microdilution method; assay type: functional
[20] = test system: Escherichia coli; test: Antibacterial activity against Escherichia coli JW55031 harboring deltatolC mutant assessed as reduction in bacterial cell growth incubated for 18 to 20 hrs by broth microdilution method; assay type: functional
[21] = Solubility of compound in PBS after 2 hrs by turbidity based absorbance analysis; assay type: physicochemical
[22] = test system: Enterococcus faecium; test: Bactericidal activity against vancomycin resistant Enterococcus faecium ATCC 700221 assessed as reduction in bacterial cell growth incubated for 18 to 20 hrs followed by re-plating on tryptic soy agar plates at 37 degC for 18 hrs by broth microdilution assay; assay type: functional
[23] = test system: Streptococcus pneumoniae; test: Antibacterial activity against Cephalosporin resistant Streptococcus pneumoniae ATCC 51916 assessed as reduction in bacterial cell growth incubated for 18 to 20 hrs by broth microdilution method; assay type: functional
[24] = test system: Klebsiella pneumoniae; test: Antibacterial activity against Klebsiella pneumoniae BAA-1706 assessed as reduction in bacterial cell growth incubated for 18 to 20 hrs by broth microdilution method; assay type: functional
[25] = test system: Staphylococcus aureus; test: Bactericidal activity against methicillin resistant Staphylococcus aureus NRS119 assessed as reduction in bacterial cell growth incubated for 18 to 20 hrs followed by re-plating on tryptic soy agar plates at 37 degC for 18 hrs by broth microdilution assay; assay type: functional
[26] = test system: Staphylococcus aureus; test: Bactericidal activity against Staphylococcus aureus ATCC 6538 assessed as reduction in bacterial cell growth incubated for 18 to 20 hrs followed by re-plating on tryptic soy agar plates at 37 degC for 18 hrs by broth microdilution assay; assay type: functional
[27] = test system: Enterococcus faecium; test: Antibacterial activity against vancomycin resistant Enterococcus faecium ATCC 700221 assessed as reduction in bacterial cell growth incubated for 18 to 20 hrs by broth microdilution method; assay type: functional
[28] = test system: Listeria monocytogenes; test: Antibacterial activity against Listeria monocytogenes ATCC 19111 assessed as reduction in bacterial cell growth incubated for 18 to 20 hrs by broth microdilution method; assay type: functional
[29] = test system: Staphylococcus aureus; test: Antibacterial activity against vancomycin resistant Staphylococcus aureus VRS10 assessed as reduction in bacterial cell growth incubated for 18 to 20 hrs by broth microdilution method; assay type: functional
[30] = test system: Streptococcus pneumoniae; test: Bactericidal activity against Methicillin resistant Streptococcus pneumoniae ATCC 700677 assessed as reduction in bacterial cell growth incubated for 18 to 20 hrs followed by re-plating on tryptic soy agar plates at 37 degC for 18 hrs by broth microdilution assay; assay type: functional
[31] = test system: Staphylococcus aureus; test: Bactericidal activity against vancomycin resistant Staphylococcus aureus VRS12 assessed as reduction in bacterial cell growth incubated for 18 to 20 hrs followed by re-plating on tryptic soy agar plates at 37 degC for 18 hrs by broth microdilution assay; assay type: functional
[32] = test system: Listeria monocytogenes; test: Bactericidal activity against Listeria monocytogenes ATCC 19111 assessed as reduction in bacterial cell growth incubated for 18 to 20 hrs followed by re-plating on tryptic soy agar plates at 37 degC for 18 hrs by broth microdilution assay; assay type: functional
[33] = test system: Staphylococcus aureus; test: Bactericidal activity against methicillin-resistant Staphylococcus aureus USA300 assessed as reduction in bacterial cell growth incubated for 18 to 20 hrs followed by re-plating on tryptic soy agar plates at 37 degC for 18 hrs by broth microdilution assay; assay type: functional
[34] = test system: Enterococcus faecalis; test: Bactericidal activity against vancomycin resistant Enterococcus faecalis ATCC 51299 assessed as reduction in bacterial cell growth incubated for 18 to 20 hrs followed by re-plating on tryptic soy agar plates at 37 degC for 18 hrs by broth microdilution assay; assay type: functional

SMILES	Activity [1]	MIC [3] [µg/mL]	MIC [4] [µg/mL]	MIC [5] [µg/mL]	MIC [6] [µg/mL]	MIC [7] [µg/mL]	MBC [8] [µg/mL]	MIC [9] [µg/mL]	MBC [10] [µg/mL]	MIC [11] [µg/mL]	MBC [12] [µg/mL]	MBC [13] [µg/mL]	MIC [14] [µg/mL]	MIC [15] [µg/mL]	MBC [16] [µg/mL]	MBC [17] [µg/mL]	MBC [18] [µg/mL]	MIC [19] [µg/mL]	MIC [20] [µg/mL]	solubility kinetic at 2 h [21] [µM]	other results
C/C(=N\NC(=N)N)c1sc(-c2ccc(C#CC3(O)CCCCC3)cc2)nc1C	Non-Toxic	4 (≈ 10.1 µM)	4 (≈ 10.1 µM)	4 (≈ 10.1 µM)	2 (≈ 5.06 µM)	4 (≈ 10.1 µM)	32 (≈ 80.9 µM)	8 (≈ 20.2 µM)	64 (≈ 162 µM)	4 (≈ 10.1 µM)	> 64	8 (≈ 20.2 µM)	4 (≈ 10.1 µM)	> 64	> 64	8 (≈ 20.2 µM)	> 64	2 (≈ 5.06 µM)	32 (≈ 80.9 µM)	147 (≈ 58.1 µg/mL)	Activity call [2]: Active; MBC [22]: 1 µg/mL (≈ 2.53 µM); MIC [23]: 8 µg/mL (≈ 20.2 µM); MIC [24]: > 64 µg/mL; MBC [25]: 4 µg/mL (≈ 10.1 µM); MBC [26]: 4 µg/mL (≈ 10.1 µM); MIC [27]: 1 µg/mL (≈ 2.53 µM); MIC [28]: 4 µg/mL (≈ 10.1 µM); MIC [29]: 2 µg/mL (≈ 5.06 µM); MBC [30]: 8 µg/mL (≈ 20.2 µM); MBC [31]: 8 µg/mL (≈ 20.2 µM); MBC [32]: 8 µg/mL (≈ 20.2 µM); MBC [33]: 16 µg/mL (≈ 40.5 µM); MBC [34]: 16 µg/mL (≈ 40.5 µM)
C/C(=N\NC(=N)N)c1sc(-c2ccc(C#Cc3ccc(C)s3)cc2)nc1C	Non-Toxic	2 (≈ 5.08 µM)	8 (≈ 20.3 µM)	8 (≈ 20.3 µM)	4 (≈ 10.2 µM)	8 (≈ 20.3 µM)	64 (≈ 163 µM)	16 (≈ 40.7 µM)	64 (≈ 163 µM)	4 (≈ 10.2 µM)	64 (≈ 163 µM)	8 (≈ 20.3 µM)	4 (≈ 10.2 µM)	> 64	> 64	4 (≈ 10.2 µM)	> 64	4 (≈ 10.2 µM)	32 (≈ 81.3 µM)	12 (≈ 4.72 µg/mL)	Activity [2]: 0.21 log10CFU; MBC [22]: 4 µg/mL (≈ 10.2 µM); MIC [23]: 8 µg/mL (≈ 20.3 µM); MIC [24]: 32 µg/mL (≈ 81.3 µM); MBC [25]: 4 µg/mL (≈ 10.2 µM); MBC [26]: 4 µg/mL (≈ 10.2 µM); MIC [27]: 2 µg/mL (≈ 5.08 µM); MIC [28]: 8 µg/mL (≈ 20.3 µM); MIC [29]: 4 µg/mL (≈ 10.2 µM); MBC [30]: 32 µg/mL (≈ 81.3 µM); MBC [31]: 16 µg/mL (≈ 40.7 µM); MBC [32]: 32 µg/mL (≈ 81.3 µM); MBC [33]: 16 µg/mL (≈ 40.7 µM); MBC [34]: 64 µg/mL (≈ 163 µM)
C/C(=N\NC(=N)N)c1sc(-c2ccc(C#CC(C)(C)O)cc2)nc1C	Toxic	2 (≈ 5.63 µM)	4 (≈ 11.3 µM)	4 (≈ 11.3 µM)	2 (≈ 5.63 µM)	4 (≈ 11.3 µM)	16 (≈ 45 µM)	4 (≈ 11.3 µM)	64 (≈ 180 µM)	4 (≈ 11.3 µM)	> 64	4 (≈ 11.3 µM)	4 (≈ 11.3 µM)	> 64	> 64	4 (≈ 11.3 µM)	> 64	2 (≈ 5.63 µM)	16 (≈ 45 µM)	320 (≈ 114 µg/mL)	MBC [22]: 4 µg/mL (≈ 11.3 µM); MIC [23]: 4 µg/mL (≈ 11.3 µM); MIC [24]: > 64 µg/mL; MBC [25]: 4 µg/mL (≈ 11.3 µM); MBC [26]: 4 µg/mL (≈ 11.3 µM); MIC [27]: 2 µg/mL (≈ 5.63 µM); MIC [28]: 4 µg/mL (≈ 11.3 µM); MIC [29]: 4 µg/mL (≈ 11.3 µM); MBC [30]: 8 µg/mL (≈ 22.5 µM); MBC [31]: 16 µg/mL (≈ 45 µM); MBC [32]: 8 µg/mL (≈ 22.5 µM); MBC [33]: 16 µg/mL (≈ 45 µM); MBC [34]: 8 µg/mL (≈ 22.5 µM)
C/C(=N\NC(=N)N)c1sc(-c2ccc(C#Cc3ccc(N)cc3)cc2)nc1C	Non-Toxic	4 (≈ 10.3 µM)	16 (≈ 41.2 µM)	16 (≈ 41.2 µM)	2 (≈ 5.15 µM)	4 (≈ 10.3 µM)	16 (≈ 41.2 µM)	> 64	> 64	2 (≈ 5.15 µM)	> 64	32 (≈ 82.4 µM)	4 (≈ 10.3 µM)	> 64	> 64	8 (≈ 20.6 µM)	> 64	8 (≈ 20.6 µM)	16 (≈ 41.2 µM)	105 (≈ 40.8 µg/mL)	Activity call [2]: inactive; MBC [22]: 16 µg/mL (≈ 41.2 µM); MIC [23]: 32 µg/mL (≈ 82.4 µM); MIC [24]: > 64 µg/mL; MBC [25]: 16 µg/mL (≈ 41.2 µM); MBC [26]: 4 µg/mL (≈ 10.3 µM); MIC [27]: 4 µg/mL (≈ 10.3 µM); MIC [28]: 32 µg/mL (≈ 82.4 µM); MIC [29]: 16 µg/mL (≈ 41.2 µM); MBC [30]: 32 µg/mL (≈ 82.4 µM); MBC [31]: 32 µg/mL (≈ 82.4 µM); MBC [32]: > 64 µg/mL; MBC [33]: 16 µg/mL (≈ 41.2 µM); MBC [34]: > 64 µg/mL
